Results taken from patent publication US4638088A, “Pesticidal biphenylyloxy and biphenylylalkoxy aryl acyl urea compounds” (Union Carbide Corporation, priority 1984, dated 1987).

Assays:
southern armyworm = assay: Southern Armyworm Leaf Spray Bait Test; type: in vivo; conditions: Spodoptera eridania, 120 h; for mortality at 25 ppm: read-out: Percent Control (after 5 days), Application Rate 25 ppm; for mortality at 100 ppm: read-out: Percent Control (after 5 days), Application Rate 100 ppm; for mortality at 500 ppm: read-out: Activity at 500 ppm, SAW, 500 ppm, Southern Armyworm larvae, up to five days; for mortality at 2 ppm: read-out: Percent Control (after 5 days), Application Rate 2 ppm; for mortality at 4 ppm: read-out: Percent Control (after 5 days), Application Rate 4 ppm; for mortality at 8 ppm: read-out: Percent Control (after 5 days), Application Rate 8 ppm; for mortality at 125 ppm: read-out: Percent Control (after 5 days), Application Rate 125 ppm
Method: (§1) Suspension of the test compounds were prepared by dissolving one gram of compound in 50 milliliters of acetone in which had been dissolved 0.1 gram (10 percent of the weight of compound) of an alkylphenoxy polyethoxyethanol surfactant, as an emulsifying or dispersing agent. The resulting solution was mixed into 150 milliliters of water to give roughly 200 milliliters of a suspension containing the compound in finely divided form. The thus-prepared stock suspension contained 0.5 percent by weight of compound. The test concentrations in parts per million by weight employed in the tests described hereinbelow were obtained by appropriate dilutions of the stock suspension with water. Certain of the test compounds were also prepared by dissolving 375 mg of compound in 7.5 ml of dimethylformamide. Fifteen milliliters of acetone containing 37.5 mg (10 percent of the weight of test compound) of an alkylphenoxy polyethoxyethanol surfactant, as a wetting/emulsifying/dispersing agent was added to the dimethylformamide solution. Fifty-two and one-half milliliters of water wasa mixed into the dimethylformamide-acetone mixture to give roughly 75 ml of a suspension containing the compound in solution or in finely divided form. The thus prepared stock suspension contained 0.5 percent by weight of compound. The test procedures were as follows:
Larvae of the southern armyworm (Spodoptera eridania, (Cram.), reared on Tendergreen bean plants at a temperature of 80°±5° F. and a relative humidity of 50±5 percent, constituted the test insects.
Potted Tendergreen bean plants of standarad height and age were placed on a revolving turntable and sprayed with 100-110 milliliters of test compound formulation by use of a DeVilbiss spray gun set at 40 psig air pressure. This application, which lasted 25 seconds, was sufficient to wet plants to run-off. As a control, 100-110 milliliters of a water-acetone-emulsifier solution containing no test compound was also sprayed on infested plants. When dry, the paired leaves were separated and each one was placed in a 9 centimeter Petri dish lined with moistened filter paper. Five randomly selected larvae were introduced into each dish and the dishes were closed. The closed dishes were labeled and held at 80°-85° F. for up to five days. Although the larvae could easily consume the whole leaf within twenty-four hours, no more food was added. Larvae which were unable to move the length of the body, even upon stimulation by prodding, were considered dead. Percent mortality was recorded for various concentration levels.

Mexican bean beetle = assay: Mexican Bean Beetle Leaf Spray Test; type: in vivo, Epilachna varivestic; conditions: Mexican Bean Beetle larvae, five days; for mortality at 500 ppm: Epilachna varivestis, 120 h, read-out: Activity at 500 ppm, MBB; for Activity at 500 ppm, MBB: 7200 min
Method: as §1
Fourth instar larvae of the Mexican bean beetle (Epilachna varivestic, Muls.), reared on Tendergreen bean plants at a temperature of 80°±5° F. and 50±5 percent relative humidity, were the test insects. For certain of the tests second instar larvae (weighting about 6 mg) of the Mexican bean beetle (Epilachna varaivestis, Muls.), reared on Sieva Pole lime bean plants at a temperature of 80°±5° F. and 50±5 percent relative humidity, were the test insects.
The test compounds were formulated by diluting the stock suspension with water to give a suspension containing 500 parts of test compound per million parts of final formulation. Potted Tendergreen bean plants of standard height and age were placed on a revolving turntable and sprayed with 100-110 milliliters of test compound formulation by use of a DeVilbiss spray gun set at 40 psig air pressure. This application, which lasted 25 seconds, was sufficient to wet plants to run-off. As a control, 100-110 milliliters of a water-acetone-emulsifier solution containing no test compound was also sprayed on infested plants. When dry, the paired leaves were separated and each was placed in a 9 centimeter Petri dish lined with moistened filter paper. Five randomly selected larvae were introduced into each dish, and the dishes were closed. The closed dishes were labeled and held at a temperature of 80°±5° F., for five days. Although the larvae could easily consume the leaf within 24 to 48 hours, no more food was added. Larvae which were unable to move the length of the body, even upon stimulation, were considered dead. Percent mortality was recorded for various concentration levels.

SMILES: O=C(NC(=O)c1c(F)cccc1F)Nc1ccc(Oc2ccc(Oc3ccccc3)cc2)cc1 [D, reference compound]
- mortality at 25 ppm (southern armyworm): 0%
- mortality at 100 ppm (southern armyworm): 0%

SMILES: Cc1cc(NC(=O)NC(=O)c2c(F)cccc2Cl)c(C)c(Cl)c1Oc1ccc(Cl)cc1-c1ccccc1 [Example 19]
- mortality at 500 ppm (southern armyworm): 71 to 100%
- mortality at 500 ppm (Mexican bean beetle): 71 to 100%

SMILES: O=C(NC(=O)c1ccc(F)cc1Cl)Nc1cc(Cl)c(Oc2ccc(-c3ccccc3)cc2)c(Cl)c1 [Comparative Example F, reference compound]
- mortality at 6.5 ppm (southern armyworm; read-out: Percent Control (after 5 days), Application Rate 6.5 ppm): 0%
- mortality at 25 ppm (southern armyworm): 0%
- mortality at 100 ppm (southern armyworm): 0%

SMILES: O=C(NC(=S)Nc1cc(Cl)c(OCc2ccccc2-c2ccccc2)c(Cl)c1)c1ccccc1Cl [Example 29]
- mortality at 500 ppm (southern armyworm): 71 to 100%
- mortality at 500 ppm (Mexican bean beetle): 71 to 100%

SMILES: Cc1cc(NC(=O)NC(=O)c2ccccc2Cl)c(C)c(Cl)c1Oc1ccc(-c2ccccc2)cc1 [Example 10]
- mortality at 500 ppm (southern armyworm): 0 to 30%
- mortality at 500 ppm (Mexican bean beetle): 71 to 100%

SMILES: Cc1cc(NC(=O)NC(=O)c2ccccc2Cl)c(C)c(Cl)c1Oc1ccc(S(=O)(=O)c2ccc(Cl)cc2)cc1 [Comparative Example H, reference compound]
- mortality at 2 ppm (southern armyworm): 0%
- mortality at 4 ppm (southern armyworm): 0%
- mortality at 8 ppm (southern armyworm): 10%

SMILES: O=C(NC(=O)c1cc(F)ccc1Cl)Nc1cc(Cl)c(Oc2cccc(-c3ccccc3)c2)c(Cl)c1 [Comparative Example G, reference compound]
- mortality at 6.25 ppm (southern armyworm; read-out: Percent Control (after 5 days), Application Rate 6.25 ppm): 0%
- mortality at 25 ppm (southern armyworm): 0%
- mortality at 100 ppm (southern armyworm): 0%

SMILES: Cc1cc(Oc2ccccc2-c2ccccc2)c(Cl)cc1NC(=S)NC(=O)c1ccccc1Cl [Example 23]
- mortality at 500 ppm (southern armyworm): 71 to 100%
- mortality at 500 ppm (Mexican bean beetle): 71 to 100%

SMILES: Cc1cc(NC(=S)NC(=O)c2ccccc2F)c(C)c(Cl)c1Oc1ccccc1-c1ccccc1 [Example 34]
- mortality at 2 ppm (southern armyworm): 100%
- mortality at 8 ppm (southern armyworm): 100%

SMILES: Cc1cc(NC(=O)NC(=O)c2c(F)cccc2Cl)c(C)c(Cl)c1Oc1ccc(Br)cc1-c1ccccc1 [Example 26]
- mortality at 500 ppm (southern armyworm): 71 to 100%
- mortality at 500 ppm (Mexican bean beetle): 71 to 100%

SMILES: Cc1cc(NC(=O)NC(=O)c2c(F)cccc2F)c(C)c(Cl)c1Oc1ccccc1-c1ccccc1 [Example 6]
- mortality at 500 ppm (southern armyworm): 71 to 100%
- mortality at 500 ppm (Mexican bean beetle): 71 to 100%

SMILES: Cc1cc(NC(=O)NC(=O)c2ccccc2F)c(C)c(Cl)c1Oc1ccc(-c2ccccc2)cc1Cl [Example 15]
- mortality at 500 ppm (southern armyworm): 71 to 100%
- mortality at 500 ppm (Mexican bean beetle): 71 to 100%

SMILES: Cc1cc(NC(=S)NC(=O)c2ccccc2F)c(C)c(Cl)c1Oc1ccccc1-c1ccccc1 [Example 30]
- Activity at 500 ppm, MBB (Mexican bean beetle): C (0- 30% Kill)

SMILES: Cc1cc(NC(=O)NC(=O)c2ccccc2Cl)c(C)c(Cl)c1Oc1ccc(Cl)cc1-c1ccccc1 [Example 17]
- mortality at 500 ppm (southern armyworm): 71 to 100%
- mortality at 500 ppm (Mexican bean beetle): 71 to 100%

SMILES: O=C(NC(=O)c1ccccc1Cl)Nc1cc(Cl)c(Oc2ccccc2-c2ccccc2)c(Cl)c1 [Example 32]
- mortality at 500 ppm (southern armyworm): 71 to 100%
- mortality at 500 ppm (Mexican bean beetle): 71 to 100%

SMILES: O=C(NC(=O)c1ccccc1Cl)Nc1ccc(Oc2ccc(Oc3ccccc3)cc2)cc1 [E, reference compound]
- mortality at 25 ppm (southern armyworm): 0%
- mortality at 100 ppm (southern armyworm): 0%

SMILES: Cc1cc(NC(=O)NC(=O)c2ccccc2Cl)c(C)c(Cl)c1Oc1ccc(Br)cc1-c1ccccc1 [Example 24]
- mortality at 500 ppm (southern armyworm): 71 to 100%
- mortality at 500 ppm (Mexican bean beetle): 0 to 30%

SMILES: Cc1cc(NC(=O)NC(=O)c2c(F)cccc2Cl)c(C)c(Cl)c1Oc1ccc(-c2ccccc2)cc1Cl [Example 16]
- mortality at 500 ppm (southern armyworm): 71 to 100%
- mortality at 500 ppm (Mexican bean beetle): 71 to 100%

SMILES: Cc1cc(NC(=S)NC(=O)c2ccccc2Cl)c(C)c(Cl)c1Oc1ccc(Br)cc1-c1ccccc1 [Example 13]
- mortality at 500 ppm (southern armyworm): 0 to 30%
- mortality at 500 ppm (Mexican bean beetle): 0 to 30%

SMILES: O=C(NC(=O)c1c(F)cccc1F)Nc1cc(Cl)c(Oc2cccc3ccccc23)c(Cl)c1 [Comparative Example C, reference compound]
- mortality at 8 ppm (southern armyworm): 0%
- mortality at 31 ppm (southern armyworm; read-out: Percent Control (after 5 days), Application Rate 31 ppm): 40%
- mortality at 125 ppm (southern armyworm): 100%

SMILES: O=C(NC(=O)c1c(F)cccc1F)Nc1cc(Cl)c(OCc2ccccc2-c2ccccc2)c(Cl)c1 [Example 28]
- mortality at 500 ppm (southern armyworm): 71 to 100%
- mortality at 500 ppm (Mexican bean beetle): 71 to 100%

SMILES: Cc1cc(Oc2ccccc2-c2ccccc2)c(Cl)cc1NC(=O)NC(=O)c1ccccc1C(F)(F)F [Example 27]
- mortality at 500 ppm (southern armyworm): 0 to 30%
- mortality at 500 ppm (Mexican bean beetle): 0 to 30%

SMILES: Cc1cc(NC(=S)NC(=O)c2ccccc2Cl)c(C)c(Cl)c1Oc1ccc(-c2ccccc2)cc1 [Example 12]
- mortality at 500 ppm (southern armyworm): 0 to 30%
- mortality at 500 ppm (Mexican bean beetle): 71 to 100%

SMILES: Cc1cc(NC(=S)NC(=O)c2ccccc2F)c(C)c(Cl)c1Oc1ccccc1-c1ccccc1 [Example 8]
- Activity at 500 ppm, MBB (Mexican bean beetle): A (71- 100% Kill)

SMILES: Cc1cc(NC(=O)NC(=O)c2c(F)cccc2F)c(C)c(Cl)c1Oc1ccc(Br)cc1-c1ccccc1 [Example 25]
- mortality at 500 ppm (southern armyworm): 71 to 100%
- mortality at 500 ppm (Mexican bean beetle): 71 to 100%

SMILES: Cc1cc(NC(=O)NC(=O)c2ccccc2F)c(C)c(Cl)c1Oc1ccc(Cl)cc1-c1ccccc1 [Example 18]
- mortality at 500 ppm (southern armyworm): 71 to 100%
- mortality at 500 ppm (Mexican bean beetle): 71 to 100%

SMILES: Cc1ccccc1C(=O)NC(=S)Nc1cc(C)c(Oc2ccccc2-c2ccccc2)c(Cl)c1C [Example 9]
- mortality at 500 ppm (southern armyworm): 71 to 100%
- mortality at 500 ppm (Mexican bean beetle): 71 to 100%

SMILES: O=C(NC(=O)c1c(F)cccc1F)Nc1cc(Cl)c(OCc2ccccc2-c2ccccc2)c(Cl)c1 [Example 35]
- mortality at 1 ppm (southern armyworm; read-out: Percent Control (after 5 days), Application Rate 1 ppm): 100%
- mortality at 4 ppm (southern armyworm): 100%

SMILES: Cc1cc(NC(=O)NC(=O)c2c(F)cccc2F)c(C)c(Cl)c1Oc1ccc(Cl)cc1-c1ccccc1 [Example 20]
- mortality at 500 ppm (southern armyworm): 71 to 100%
- mortality at 500 ppm (Mexican bean beetle): 71 to 100%

SMILES: Cc1cc(Oc2ccccc2-c2ccccc2)c(Cl)cc1NC(=O)NC(=O)c1c(F)cccc1F [Example 22]
- mortality at 500 ppm (southern armyworm): 71 to 100%
- mortality at 500 ppm (Mexican bean beetle): 71 to 100%

SMILES: O=C(NC(=O)c1ccccc1Cl)Nc1cc(Cl)c(OCc2ccccc2-c2ccccc2)c(Cl)c1 [Example 2, 1-(2-chlorobenzoyl)-3-[3,5-dichloro-4-(2-phenylphenylmethoxy)phenyl]urea]
- mortality at 500 ppm (southern armyworm): 71 to 100%
- mortality at 500 ppm (Mexican bean beetle): 71 to 100%

SMILES: Cc1cc(NC(=O)NC(=O)c2ccccc2Cl)c(C)c(Cl)c1Oc1ccccc1-c1ccccc1 [Example 3]
- mortality at 500 ppm (southern armyworm): 71 to 100%
- mortality at 500 ppm (Mexican bean beetle): 71 to 100%

SMILES: Cc1cc(NC(=O)NC(=O)c2c(F)cccc2F)c(C)c(Cl)c1Oc1ccc(-c2ccccc2)cc1Cl [Example 14]
- mortality at 500 ppm (southern armyworm): 71 to 100%
- mortality at 500 ppm (Mexican bean beetle): 71 to 100%

SMILES: Cc1ccc(Oc2ccc(NC(=O)NC(=O)c3ccccc3Cl)cc2Cl)c(C)c1 [Comparative Example B, reference compound]
- mortality at 8 ppm (southern armyworm): 20%
- mortality at 21 ppm (southern armyworm; read-out: Percent Control (after 5 days), Application Rate 21 ppm): 30%
- mortality at 125 ppm (southern armyworm): 100%

SMILES: Cc1cc(NC(=O)NC(=O)c2c(Cl)cccc2Cl)c(C)c(Cl)c1Oc1ccccc1-c1ccccc1 [Example 4]
- mortality at 500 ppm (southern armyworm): 71 to 100%
- mortality at 500 ppm (Mexican bean beetle): 71 to 100%

SMILES: Cc1cc(Oc2ccccc2-c2ccccc2)c(Cl)cc1NC(=O)NC(=O)c1ccccc1Cl [Example 21]
- mortality at 500 ppm (southern armyworm): 71 to 100%
- mortality at 500 ppm (Mexican bean beetle): 71 to 100%

SMILES: Cc1cc(NC(=O)NC(=O)c2c(F)cccc2F)c(C)c(Cl)c1Oc1ccccc1-c1ccccc1 [Example 33]
- mortality at 2 ppm (southern armyworm): 100%
- mortality at 8 ppm (southern armyworm): 100%
